The text below walks through data of patent publication US20110201648A1, “POLY-HETEROARYL DERIVATIVES FOR THE TREATMENT OF CANCER” (INSTITUT CURIE, priority 2008, published 2011).

For the compound `c1cc(-c2cnc(-c3ccc(-c4cnco4)o3)o2)nc(-c2cnc(-c3ccc(-c4cnco4)o3)o2)c1` [compound 6, 2,6-Bis(2-(5-(oxazol-5-yl)furan-2-yl)oxazol-5-yl)pyridine], the melting point (in general, the temperature of the solid-liquid transition) is above 250 °C.

The compound `c1ccc(-c2ncc(-c3cccc(-c4cnc(-c5ccccn5)o4)n3)o2)nc1` [compound 1, 2,6-Bis[2-(pyridin-2-yl)oxazol-5-yl]pyridine] registered a melting point of 242 to 245 °C.

Consider `c1cc(-c2cnco2)cc(-c2ncc(-c3cccc(-c4cnc(-c5cccc(-c6cnco6)c5)o4)n3)o2)c1` [compound 5, 2,6-Bis(2-(3-(oxazol-5-yl)phenyl)oxazol-5-yl)pyridine], for which the melting point was in the range of 254 to 256 °C.

Compound `c1cc(-c2cnc(-c3cccc(-c4cnco4)n3)o2)cc(-c2cnc(-c3cccc(-c4cnco4)n3)o2)c1` [compound 4, 1,3-Bis(2-(6-(oxazol-5-yl)pyridin-2-yl)oxazol-5-yl)benzene] came in with a melting point above 250 °C.
